# Test results: patent US11471442B2, “Administration of gut-selective JAK3 inhibitor” (THERAVANCE BIOPHARMA R&D IP, LLC, priority 2020, dated 2022)
# Assays:
# [1] = Phase 1 multiple ascending dose (MAD, Part B) safety and tolerability in healthy subjects; format: in vivo, human; conditions: for Most frequent TEAEs: Acne / Most frequent TEAEs: Dizziness / Most frequent TEAEs: Headache / Most frequent TEAEs: Pain in extremity / Subjects with TEAEs: Any TEAE / Subjects with TEAEs: Moderate or severe TEAE / Subjects with TEAEs: Serious TEAE / Subjects with TEAEs: TEAE leading to discontinuation / Total number of TEAEs: MAD, n = 6
# From the text: This clinical study was the first in human study of a compound of formula (I). The purpose of this study was to assess the safety, tolerability and pharmacokinetics (PK) of the compound of formula (I) through single ascending dose administration (Part A) and multiple dose administrations (Part B) in healthy subjects.
# The number and severity of treatment emergent adverse events (TEAE5) following single (Part A) or multiple (Parts B) oral doses of the compound of formula (I) and matching placebo, and changes in safety laboratory assessments, vital signs, and ECGs.
# 24 healthy, adult male and female subjects were enrolled in Part B. […] cohorts (B1 to B3) of 8 healthy subjects (6 active and 2 placebo) were evaluated.
# (§1) In each cohort, healthy subjects meeting eligibility criteria were sequentially randomized in a 3:1 ratio to receive either the compound of formula (I) or placebo BID, each morning and evening (approximately 12 hours following the morning dose) for 10 consecutive days of dosing, except for Day 10 where subjects were only received a morning dose. Subjects were dosed in an upright (i.e., seated or standing) position and remained upright for 5 minutes after dosing before a posture change for other study procedures, if applicable. Subjects fasted overnight for at least 9.5 hours prior to morning dose on Day 1 and Day 10. Subjects continued the fast for at least 4 hours post morning dose on these days. For all other morning doses and for all evening doses (i.e., Day 1 evening and Days 2 to 9), subjects were required to fast for at least 2 hours prior and for at least 2 hours following the dose.
# Safety was determined by evaluating physical examinations, vital signs, safety 12-lead electrocardiograms (ECGs) monitoring, clinical laboratory tests, and adverse events (AEs). For procedures scheduled to be performed at common times, collection of PK samples was collected as close as possible to the designated time. The cardiodynamic recordings via ECG extractions from the Holter monitor were conducted as close as possible prior to the corresponding PK sampling. Vital signs, followed by safety ECGs, were be taken before the PK sampling (or before the cardiodynamic sampling if scheduled at the same time), unless PK samples were late as a result in which case vital signs were taken following the PK sampling.
# Safety analyses were performed using the Safety analysis set. Safety variables include vital signs, adverse events, clinical laboratory results (hematology, chemistry, coagulation, and urinalysis), and ECG parameters, such as Friderica's corrected QT interval (QTcF), PR interval, QT interval, QRS interval, and heart rate, from standard safety digital ECGs. Vital signs were summarized in terms of observed values and changes from baseline.
# [2] = Phase 1 MAD (Part B) plasma pharmacokinetics in healthy subjects; format: in vivo, human; conditions: for Accumulation ratio (AUC0-12,ss/AUC0-12), Geometric mean (CV %) / Accumulation ratio (AUC0-12,ss/AUC0-12), Mean (SD): n = 6
# Experimental: The plasma PK parameters of the compound of formula (I) calculated following single (Part A) or multiple (Parts B) oral doses.
# as §1
# PK sampling for the compound of formula (I) in plasma was taken Day 1 pre-morning dose and for 12 hours post-dose and Day 10 pre-morning dose and for 72 hours post Day 10 dose. Additional pre morning dose samples were taken on Days 2, 4, 6, and 8.
# For all subjects, blood samples for the determination of plasma concentration of the compound of formula (I) were collected at scheduled time points. Blood samples were analyzed to calculate different plasma PK parameters in both part A and part B.
# For all PK data analyses, the PK analysis set was used. Individual subject and mean plasma drug concentration versus time curves for the compound of formula (I) were presented for each dose group. Summary statistics (mean, standard deviation, coefficient of variation, median, minimum, maximum, geometric mean, geometric coefficient of variation, number of subjects) were calculated for plasma concentrations at each time point for each dose group, and the PK parameters for each dose group. Urine PK parameters were summarized for exploratory purposes.
smiles,measurement,setting,value
CN(C)C/C=C/C(=O)N1CC(COc2cc(-c3ccc(O)cc3)cc3[nH]ncc23)C1 [compound of formula (I)],serious AEs,[1]; MAD cohorts,No serious AEs
same,severity of reported treatment-emergent AEs,[1]; MAD cohorts,mild
same,"changes from predose baseline in laboratory assessments (lipid, coagulation, hematology), vital signs or ECGs","[1]; MAD cohorts, any time point postdose",No clinically significant changes
same,Most frequent TEAEs: Acne,[1]; 100 mg BID oral for 10 days,1 (17)
same,Most frequent TEAEs: Dizziness,[1]; 100 mg BID oral for 10 days,2 (33)
same,Most frequent TEAEs: Headache,[1]; 100 mg BID oral for 10 days,2 (33)
same,Most frequent TEAEs: Pain in extremity,[1]; 100 mg BID oral for 10 days,1 (17)
same,Subjects with TEAEs: Any TEAE,[1]; 100 mg BID oral for 10 days,5 (83)
same,Subjects with TEAEs: Moderate or severe TEAE,[1]; 100 mg BID oral for 10 days,0
same,Subjects with TEAEs: Serious TEAE,[1]; 100 mg BID oral for 10 days,0
same,Subjects with TEAEs: TEAE leading to discontinuation,[1]; 100 mg BID oral for 10 days,0
same,Total number of TEAEs,[1]; 100 mg BID oral for 10 days,11
same,Most frequent TEAEs: Acne,[1]; 300 mg BID oral for 10 days,0
same,Most frequent TEAEs: Dizziness,[1]; 300 mg BID oral for 10 days,0
same,Most frequent TEAEs: Headache,[1]; 300 mg BID oral for 10 days,0
same,Most frequent TEAEs: Pain in extremity,[1]; 300 mg BID oral for 10 days,0
same,Subjects with TEAEs: Any TEAE,[1]; 300 mg BID oral for 10 days,1 (17)
same,Subjects with TEAEs: Moderate or severe TEAE,[1]; 300 mg BID oral for 10 days,0
same,Subjects with TEAEs: Serious TEAE,[1]; 300 mg BID oral for 10 days,0
same,Subjects with TEAEs: TEAE leading to discontinuation,[1]; 300 mg BID oral for 10 days,0
same,Total number of TEAEs,[1]; 300 mg BID oral for 10 days,9
same,Most frequent TEAEs: Acne,[1]; 1000 mg BID oral for 10 days,0
same,Most frequent TEAEs: Dizziness,[1]; 1000 mg BID oral for 10 days,0
same,Most frequent TEAEs: Headache,[1]; 1000 mg BID oral for 10 days,0
same,Most frequent TEAEs: Pain in extremity,[1]; 1000 mg BID oral for 10 days,0
same,Subjects with TEAEs: Any TEAE,[1]; 1000 mg BID oral for 10 days,0
same,Subjects with TEAEs: Moderate or severe TEAE,[1]; 1000 mg BID oral for 10 days,0
same,Subjects with TEAEs: Serious TEAE,[1]; 1000 mg BID oral for 10 days,0
same,Subjects with TEAEs: TEAE leading to discontinuation,[1]; 1000 mg BID oral for 10 days,0
same,Total number of TEAEs,[1]; 1000 mg BID oral for 10 days,0
same,tolerability,[1]; multiple doses up to 1000 mg BID for 10 days,generally well-tolerated
same,time to steady state,[2]; 100 mg BID,7 days
same,"Accumulation ratio (AUC0-12,ss/AUC0-12), Geometric mean (CV %)",[2]; 100 mg BID,2.5 (35.2)
same,"Accumulation ratio (AUC0-12,ss/AUC0-12), Mean (SD)",[2]; 100 mg BID,2.6 (0.78)
same,time to steady state,[2]; 300 mg BID,3 days
same,"Accumulation ratio (AUC0-12,ss/AUC0-12), Geometric mean (CV %)",[2]; 300 mg BID,2.3 (51.9)
same,"Accumulation ratio (AUC0-12,ss/AUC0-12), Mean (SD)",[2]; 300 mg BID,2.5 (1.1)
same,"fold mean Cmax,ss below the protein-adjusted JAK3 IC50",[2]; 1000 mg BID,approximately 11 fold
same,time to steady state,[2]; 1000 mg BID,3 days
same,"Accumulation ratio (AUC0-12,ss/AUC0-12), Geometric mean (CV %)",[2]; 1000 mg BID,2.3 (92.5)
same,"Accumulation ratio (AUC0-12,ss/AUC0-12), Mean (SD)",[2]; 1000 mg BID,2.9 (1.7)
